Laboratory results taken from patent publication US10813944B2, “Cyclodextrins as procoagulants” (STICHTING SANQUIN BLOEDVOORZIENING, priority 2016, dated 2020).

Key:
Assay type in all cases: biochemical, human
[1] = tested on: plasma deficient in coagulation factor IX; assay: Thrombin generation assay in plasma deficient in coagulation factor IX
Experimental: (§1) The Calibrated Automated Thrombogram® assays the generation of thrombin in clotting plasma using a microtiter plate reading fluorometer (Fluoroskan Ascent, ThermoLab systems, Helsinki, Finland) and Thrombinoscope® software (Thrombinoscope BV, Maastricht, The Netherlands). The assay was carried out as described by Hemker et al. (Pathofysiol. IIaemost. Thromb. 2003, 33, 4-15), and the Thrombinoscope® manual. Coagulation was triggered by recalcification in the presence of 1 or 5 pM recombinant human tissue factor (Innovin®, Siemens, Marburg, Germany), 4 μM phospholipids, and 417 μM fluorogenic substrate Z-Gly-Gly-Arg-AMC (Bachem, Bubendorf, Switzerland). Fluorescence was monitored using the Fluoroskan Ascent fluorometer (ThermoLabsystems, Helsinki, Finland), and the lag time, peak thrombin, velocity index and area under the curve (ETP) were calculated using the Thrombinoscope® software (Thrombinoscope BV).

[2] = tested on: plasma of a hemophilia A patient containing anti-FVIII antibodies; assay: Thrombin generation in plasma of a hemophilia A patient with anti-factor VIII antibodies; settings: anti-FVIII antibodies 50 BU
Experimental: FIG. 28: Effect of OKL-1111 (A), OKL-1180 (B) and OKL-1187 (C) on coagulation in plasma of a hemophilia A patient with anti-factor VIII antibodies. BU=Bethesda Units.
as §1
The patient had developed antibodies against factor VIII prior to plasma withdrawal. The plasma contained high levels of anti-FVIII antibodies (50 BU).

[3] = tested on: thrombin generation in pooled normal plasma; assay: Calibrated Automated Thrombogram thrombin generation assay in pooled normal plasma; settings: no anticoagulant; cyclodextrin 100 μM unless otherwise indicated; 1 pM TF
Experimental: FIGS. 3-8, 12, 14-19 and 22-27: Pooled normal plasma was spiked with cyclodextrins (100 μM, unless otherwise indicated) and anticoagulants. The concentrations of the anticoagulants were 100 ng/ml for dabigatran (A), 100 ng/ml for rivaroxaban (B), 60 ng/ml for apixaban (C), 60 ng/ml for edoxaban (D). The plasmas were subjected to thrombin generation analysis as described in the Materials and Methods section with 1 pM tissue factor (TF) as initiator of coagulation.
as §1
Thrombin generation analyses were performed in pooled normal plasma with and without the addition of anticoagulants.

[4] = tested on: plasma deficient in coagulation factor VIII; assay: Thrombin generation assay in plasma deficient in coagulation factor VIII
Experimental: FIG. 20: Plasma deficient in coagulation factor VIII was spiked with cyclodextrin OKL-1111 (A), OKL-1180 (B), and OKL-1187 (C) at the indicated concentrations.
as §1

O=C(O)CCCCCCCSCC1OC2OC3C(CSCCCCCCCC(=O)O)OC(OC4C(CSCCCCCCCC(=O)O)OC(OC5C(CSCCCCCCCC(=O)O)OC(OC6C(CSCCCCCCCC(=O)O)OC(OC7C(CSCCCCCCCC(=O)O)OC(OC8C(CSCCCCCCCC(=O)O)OC(OC1C(O)C2O)C(O)C8O)C(O)C7O)C(O)C6O)C(O)C5O)C(O)C4O)C(O)C3O (stereo not shown) [OKL-1180]
procoagulant activity in factor IX deficient plasma [1]: procoagulant activity | thrombin generation in hemophilia A patient plasma [2]: concentration-dependently stimulated thrombin generation | procoagulant effect in normal plasma [3]: procoagulant activity | procoagulant effect in factor VIII deficient plasma [4]: procoagulant effects
